Laboratory results: ChEMBL document CHEMBL5214979 (J Med Chem, 2022)

Tests used:
[1] = Apparent permeability of the compound from apical to basolateral side in human Caco-2 cells incubated for 2 hrs by LC-MS/MS analysis; details: caco-2, 2 h
[2] = biological target: T1, Branched-chain-amino-acid aminotransferase, mitochondrial (Homo sapiens, UniProt O15382); experiment: Inhibition of human recombinant BCAT2 using leucine and alpha-KG as substrate in presence of NADH by fluorescence assay
T1 sequence (O15382 whole entry): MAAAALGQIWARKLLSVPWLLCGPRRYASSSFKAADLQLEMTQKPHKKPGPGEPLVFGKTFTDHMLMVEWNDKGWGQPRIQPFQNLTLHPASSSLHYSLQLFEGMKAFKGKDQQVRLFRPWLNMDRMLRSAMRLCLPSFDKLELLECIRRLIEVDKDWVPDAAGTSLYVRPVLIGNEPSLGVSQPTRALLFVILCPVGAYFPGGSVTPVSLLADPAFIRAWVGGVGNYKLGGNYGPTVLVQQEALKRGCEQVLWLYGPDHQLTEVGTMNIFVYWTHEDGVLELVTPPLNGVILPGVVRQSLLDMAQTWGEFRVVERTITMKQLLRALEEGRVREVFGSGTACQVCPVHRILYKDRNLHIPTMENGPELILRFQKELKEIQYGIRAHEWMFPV

[3] = biological target: T2, Branched-chain-amino-acid aminotransferase, cytosolic (Homo sapiens, UniProt P54687); experiment: biochemical
T2 sequence (P54687 whole entry): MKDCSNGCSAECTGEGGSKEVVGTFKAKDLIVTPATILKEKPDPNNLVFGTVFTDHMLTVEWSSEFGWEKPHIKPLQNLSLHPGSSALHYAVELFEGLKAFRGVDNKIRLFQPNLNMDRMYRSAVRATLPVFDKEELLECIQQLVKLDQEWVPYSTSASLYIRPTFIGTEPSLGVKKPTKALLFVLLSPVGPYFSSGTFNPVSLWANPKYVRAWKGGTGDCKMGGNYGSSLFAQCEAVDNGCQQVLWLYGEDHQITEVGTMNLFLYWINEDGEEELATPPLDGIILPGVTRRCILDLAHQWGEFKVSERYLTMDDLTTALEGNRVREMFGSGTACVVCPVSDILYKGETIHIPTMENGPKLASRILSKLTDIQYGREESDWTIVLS
Description: Inhibition of N-terminal his-tagged human recombinant BCAT1 expressed in Escherichia coli BL21(DE3) cells using leucine and alpha-KG as substrate in presence of NADH by fluorescence assay

[4] = Upregulation of BCAA expression in human MDA-MB-231 cells; assay type: functional, cell-based
[5] = Metabolic stability in human liver microsomes assessed as blood clearance incubated upto 60 mins by LC-MS/MS analysis; assay type: ADME, Microsome
[6] = Metabolic stability in Wistar Han rat hepatocyte assessed as blood clearance at 1 uM incubated upto 90 mins by LC-MS/MS analysis; assay type: ADME, cell-based; details: hepatocytes
[7] = Metabolic stability in human liver microsomes assessed as maximal oral bioavailability incubated upto 60 mins by LC-MS/MS analysis; assay type: ADME, Microsome
[8] = Apparent permeability of the compound from basolateral to apical side in human Caco-2 cells incubated for 2 hrs by LC-MS/MS analysis; assay type: ADME, cell-based; details: caco-2, 2 h
[9] = Lipophilicity, logD of compound at pH 7.5; assay type: physicochemical; details: buffer
[10] = Aqueous solubility of compound in PBS buffer at pH 6.5 incubated for 24 hrs by HPLC-UV analysis; assay type: physicochemical; details: pH 6.5, 24 h

| Structure (SMILES) | Papp [1] | also measured |
| --- | --- | --- |
| COc1cc(C#N)c(Oc2ccccc2C)cc1-n1c(=O)cc(C(F)(F)C(F)(F)F)[nH]c1=O | 33 nm/s | – |
| COc1cc(C#N)c(Oc2ccccc2C)cc1-n1c(=O)cc(Br)[nH]c1=O | 71 nm/s | – |
| COc1cc(OC)c(-n2c(=O)cc(C(F)(F)F)[nH]c2=O)cc1Cl | – | IC50 [2]: 20 µM; IC50 [3]: 3300 nM |
| COc1cc(C#N)c(Oc2ccccc2C)cc1-n1c(=O)cc(C(N)=O)[nH]c1=O | 11 nm/s | – |
| CCCc1cc(=O)n2nc(NCc3c(F)cc(Cl)cc3F)c(C#N)c2[nH]1 | – | IC50 [4]: 564 µM |
| COc1cc(C#N)c(Oc2ccccc2C)cc1-n1c(=O)cc(C(F)(F)Cl)[nH]c1=O | 30 nm/s | – |
| COc1cc(C#N)c(Oc2ccccc2C)cc1-n1c(=O)cc(S(=O)(=O)c2ccccc2)[nH]c1=O | 0.5 nm/s | – |
| Cc1ccccc1Oc1cc(-n2c(=O)cc(C(F)(F)F)[nH]c2=O)c2ccccc2c1 [BAY-771] | 275 nm/s | CLhep predicted [5]: 13.2 mL/min/kg; CLhep predicted at […], 1 µM [6]: 41.7 mL/min/kg; Fh at 1 h [7]: 40%; Papp [8]: 171 nm/s; logD [9]: 2.2; solubility [10]: > 412 mg/L |
| COc1cc(C#N)c(Oc2ccccc2C)cc1-n1c(=O)cc(C(F)(F)c2ccccc2)[nH]c1=O | 329 nm/s | – |
| N#Cc1cc(F)c(-n2c(=O)cc(C(F)(F)F)[nH]c2=O)cc1Oc1ccccc1 | – | IC50 [2]: 13.4 µM |
| Cc1ccccc1Oc1cc(-n2c(=O)cc(C(F)(F)F)[nH]c2=O)c(C)cc1C#N | 48 nm/s | – |
| COc1cc(C#N)c(Oc2ccccc2C)cc1-n1c(=O)cc(-c2ccccc2)[nH]c1=O | 284 nm/s | – |
| COc1cc(Cl)c(Oc2ccccc2C)cc1-n1c(=O)cc(C(F)(F)F)[nH]c1=O | 199 nm/s | – |
| Cc1ccccc1Oc1cc(-n2c(=O)cc(C(F)(F)F)[nH]c2=O)c(F)cc1C#N | – | IC50 [2]: 13.3 µM |
| COc1cc(C#N)c(Oc2ccccc2C)cc1-n1c(=O)cc(S(C)(=O)=O)[nH]c1=O | 29 nm/s | – |
| COc1cc(C#N)c(Oc2ccccc2C)cc1-n1c(=O)cc(C(F)(F)F)[nH]c1=O | 23 nm/s | – |
| CNC(=O)c1ccn2c(-n3c(=O)cc(C(F)(F)F)[nH]c3=O)c(-c3ccccn3)nc2c1 | – | IC50 [3]: 850 nM |
